Experimental findings from patent publication US20220087970A1, “PREVENTION OF ANESTHETIC-INDUCED NEUROCOGNITIVE DYSFUNCTION” (The Johns Hopkins University, priority 2019, published 2022) are described below.

Common to all, as to assay type: in vivo
For one data set, the system named is NR2B. Put plainly: Western blot of hippocampal synaptic fractions: NR2B. The note with it: one day after PND7 mice exposed to isoflurane (1.5% ISO in O2, 4 h). On the procedure:
One day after PND7 mice were exposed to isoflurane (1.5% ISO in O2, 4 h), we harvested hippocampal tissues for Western blotting to assess the expression of receptors and MAGUKs. […] (N=9). A *p<0.05 was considered significant. […] Data shown as % actin;

In a further data set the test system is C57BL6 mice. Put plainly: Novel object recognition at PND21. The following applies: mean ±SD, in s (unit assumed). How it is done:
1.3.2 Anesthesia, Peptide, and Molsidomine Injections. PND7 control and experimental mice were placed in a clear plastic cone and body temperature maintained by a heating blanket set to 35° C. Vital signs and physiological monitoring were assessed using PhysioSuite® (Kent Scientific Corporation, Torrington, Conn., USA) and blood gasses were collected arterially. […] Note that lower concentrations of 02 can be used, e.g., between 20% to 100% 02, including 20%, 25%, 30%, 35%, 40%, 45%, 50%, 55%, 60%, 65%, 70%, 75%, 80%, 85%, 90%, 95%, 96%, 97%, 98%, 99%, and 100% 02. Naïve animals were left with the dams. Anesthesia was initiated with 2.4% ISO in 100% oxygen for 2 min and tapered down to 1.5% within 15 min. Exposure to 1.5% ISO was continued for 3 hours and 45 min (total 4 hours ISO). Control ‘CON’ animals were exposed to 100% oxygen only. At the end of the exposure animals were maintained in oxygen on the heating blanket for 10 min then returned to dams. […] Tao and Johns, 2008. A single injection of peptide was given ip. Separate peptide cohorts were injected in parallel with mice undergoing exposure to anesthesia or O2 control. Purification of fusion peptides was performed by Creative BioMart (Shirley, N.Y.) and verified by Coomassie blue staining and Western blot analysis and then stored in 10% glycerol/phosphate buffered saline at −80° C. until use. The Tat-PSD-95 PDZ2WT and MUT plasmids used to generate proteins containing an amino-terminal, in-frame, 11-amino-acid, minimal transduction domain (residues 47-57 of human immunodeficiency virus Tat protein) termed Tat. […] Fang et al., 2003. The NO donor molsidomine [(N-[ethoxycarbonyl]-3-[4-morpholinosydnomine] (Sigma, St. Louis, Mo.) was injected at 4 mg/kg into mice ip in 100 μL sterile saline as previously described. The NO donor was added immediately following cessation of anesthesia or control (O2) exposure, i.e., the NO donor was injected 4 hours after onset of anesthesia. One of ordinary skill in the art upon review of the present disclosure would appreciate that the NO donor could be administered at other times during anesthesia, including at the onset of anesthesia. Control animals were injected ip with the vehicle (saline).
1.3.7 Novel Object Recognition. The novel object recognition (NOR) procedure was based upon the original Ennaceur et al., 1988, procedure and was used to assess nonspatial hippocampal memory. Clark et al., 2000; Baker and Kim, 2002; Reger et al., 2009. It consisted of a training ‘familiarization’ phase followed by a testing phase. During training, mice were allowed to freely explore within an opaque box (40 cm W×40 cm L×34 cm H) containing two identical objects for 10 min. Data were recorded with a video camera and time spent with each object was recorded using ANYmaze software (Stoelting). Object investigation time was determined by the amount of time the mouse spent in the zone immediately surrounding the object. […] After 2 h, object recognition was tested, using the same procedure as in training except that a novel object was substituted for one of the familiar training objects and mice were allowed to explore for 5 min. Mice inherently prefer to explore novel objects; thus, a preference for the novel object indicates intact memory for the familiar object.

The next data set concerns caspase-3. Description: Western blot for cleaved caspase-3 (apoptosis) after PND7 exposure. The following applies: PND7 mice, 4 h treatment (1.5% ISO in 100% O2 or peptide 8 mg/kg ip), 2 h following cessation of exposure. On the procedure: 1.3.2 Anesthesia, Peptide, and Molsidomine Injections. PND7 control and experimental mice were placed in a clear plastic cone and body temperature maintained by a heating blanket set to 35° C. Vital signs and physiological monitoring were assessed using PhysioSuite® (Kent Scientific Corporation, Torrington, Conn., USA) and blood gasses were collected arterially. […] Note that lower concentrations of 02 can be used, e.g., between 20% to 100% 02, including 20%, 25%, 30%, 35%, 40%, 45%, 50%, 55%, 60%, 65%, 70%, 75%, 80%, 85%, 90%, 95%, 96%, 97%, 98%, 99%, and 100% 02. Naïve animals were left with the dams. Anesthesia was initiated with 2.4% ISO in 100% oxygen for 2 min and tapered down to 1.5% within 15 min. Exposure to 1.5% ISO was continued for 3 hours and 45 min (total 4 hours ISO). Control ‘CON’ animals were exposed to 100% oxygen only. At the end of the exposure animals were maintained in oxygen on the heating blanket for 10 min then returned to dams. […] Tao and Johns, 2008. A single injection of peptide was given ip. Separate peptide cohorts were injected in parallel with mice undergoing exposure to anesthesia or O2 control. […]
1.3.3 Western Blotting. […] Proteins were detected by enhanced chemiluminescence (Amersham, Piscataway, N.J.). […]

Setting [1] is: PSD93KO mice exposed to ISO at PND7, tested at PND21.
Setting [2] is: WT mice exposed at PND7, tested at PND21.

Take `FC(F)OC(Cl)C(F)(F)F` (racemic) [ISO, (RS)-2-chloro-2-(difluoromethoxy)-1,1,1-trifluoroethane]: the “amount of NR2B in synaptic fractions” value in the data set on NR2B was “significant increase”. Besides, in the data set on C57BL6 mice (setting [1]), the “investigation time of the known object” value is listed as 29±13 and the “investigation time of the novel object” value came to 42±20. Moreover, in the data set on C57BL6 mice (setting [2]), the “investigation time of the known object” value is listed as 18±12 and the “investigation time of the novel object” value turned out to be 29±11. In addition, the “cleaved caspase-3 (Western blot)” value in the data set on caspase-3 is recorded as “did not yield any detectable cleaved caspase”.
